Experimental data reported in patent publication US20140308317A1, “Polymeric Compounds And Methods Of Making And Using The Same” (CELLCEUTIX CORPORATION, priority 2012, published 2014).
In brackets after ≈: the same amount, converted by molar mass.

Assays:
E. Coli ATCC 25922 = test: Minimum Inhibitory Concentration (MIC), modified microbroth dilution; assay type: cell-based; details: E. coli (25922), overnight incubation (18 hours); for MIC50: Escherichia coli, ATCC25922, read-out: MIC50 E. coli
[1] = system: Enterococcus faecalis ATCC 29212; test: as above; assay type: cell-based; details: E. faecalis (29212), overnight incubation (18 hours); for MIC50: Enterococcus faecalis, ATCC29212, read-out: MIC50 E. faecalis
[2] = system: Pseudomonas aeruginosa ATCC 10145; test: as above; assay type: cell-based; details: P. aeruginosa (10145), overnight incubation (18 hours); for MIC50: Pseudomonas aeruginosa, ATCC10145, read-out: MIC50 P. Aeruginosa
[3] = system: Staphylococcus aureus ATCC 27660; test: as above; assay type: cell-based; details: S. aureus (27660), overnight incubation (18 hours); for MIC50: Staphylococcus aureus, ATCC27660, read-out: MIC50 S. aureus
[4] = system: Klebsiella pneumoniae ATCC 13883; test: as above; assay type: cell-based; details: K. pneumoniae (13883), overnight incubation (18 hours); for MIC50: Klebsiella pneumoniae, ATCC13883, read-out: MIC50 K. Pnuemnoiae
[5] = Cytotoxicity colorimetric (tetrazolium) assay; assay type: cell-based, mouse; details: mouse, NIH/3T3 cells, one hour with compound in serum-free media
Experimental: (§1) Cytotoxicity of the compounds was evaluated in a colorimetric assay using a transformed human liver cell line (HepG2, HB-8065) and an embryonic mouse cell line (NIH/3T3 cells, CRL-1658). This assay measures the bioreduction of a novel tetrazolium compound to a soluble formazan product by viable cells. HepG2 cells were seeded in 96 well plates at 2×10^4 cells/well in MEM medium with 10% fetal bovine serum (FBS) 24 hours prior to use. NIH/3T3 cells were seeded in 96 well plates at 2×10^4 cells/well in DMEM medium with 10% bovine calf serum (BCS) 24 hours prior to use. Cell monolayers were rinsed in serum-free media and incubated for one hour with compounds in serum-free media. After incubation, the media is replaced with serum supplemented media and live cells were measured using the Cell Titer 96 Aqueous […] Assay kit (Promega, Madison, Wis.). EC50 values were determined using a four parameter logistic equation: Y=Bottom+(Top-Bottom)/(1+10̂((LogEC50−X)*HillSlope)).
(§2) Actual results from a representative cytotoxicity assay are shown below in Table 2. Data is expressed as EC50 in μg/mL.

[6] = Cytotoxicity colorimetric (tetrazolium) assay; assay type: cell-based, human; details: human, HepG2 cells, one hour with compound in serum-free media
Experimental: as §1, §2

Compound | MIC50 (E. Coli ATCC 25922) [µg/mL] | MIC50 [1] [µg/mL] | MIC50 [2] [µg/mL] | MIC50 [3] [µg/mL] | MIC50 [4] [µg/mL] | MIC50 E. coli (E. Coli ATCC 25922) [µg/mL] | MIC50 E. faecalis [1] [µg/mL] | MIC50 P. Aeruginosa [2] [µg/mL] | MIC50 S. aureus [3] [µg/mL] | MIC50 K. Pnuemnoiae [4] [µg/mL] | further results
NCCCn1c2ccccc2c2ccccc21 [Compound 105] | – | – | – | – | – | >100 | >100 | >100 | >100 | >100 | –
N=C(N)NCCCOc1cc(OCCCNC(=N)N)c(-c2ccc(F)c(F)c2)cc1-c1ccc(F)c(F)c1 [Compound 119] | – | – | – | – | – | – | – | – | – | – | EC50 at 1 h ([5]; NIH/3T3 cells (CRL-1658)): 113 µg/mL (≈ 213 µM)
N=C(N)NCCCOc1cc(-c2ccc3sc4ccc(-c5cc(OCCCNC(=N)N)c(OCCCNC(=N)N)c(OCCCNC(=N)N)c5)cc4c3c2)cc(OCCCNC(=N)N)c1OCCCNC(=N)N [Compound 186] | – | – | – | – | – | 12.5 (≈ 12.2 µM) | 3.13 (≈ 3.05 µM) | 12.5 (≈ 12.2 µM) | 0.78 (≈ 0.759 µM) | 6.25 (≈ 6.08 µM) | –
NCCCN1c2ccccc2Sc2ccc(C(F)(F)F)cc21 [Compound 101] | 25 (≈ 77.1 µM) | 12.5 (≈ 38.5 µM) | > 100 | 25 (≈ 77.1 µM) | 50 (≈ 154 µM) | – | – | – | – | – | EC50 at 1 h ([5]; NIH/3T3 cells (CRL-1658)): 9 µg/mL (≈ 27.7 µM)
NCCNc1ccc(-c2ccc3sc4ccc(-c5ccc(NCCN)cc5)cc4c3c2)cc1 [Compound 173] | – | – | – | – | – | 6.25 (≈ 13.8 µM) | 1.56 (≈ 3.45 µM) | >50 | 0.195 (≈ 0.431 µM) | 3.13 (≈ 6.92 µM) | –
NCCc1cc(CCN)cc(-c2cc(F)cc(-c3cc(F)cc(-c4cc(CCN)cc(CCN)c4)c3)c2)c1 [Compound 150] | – | – | – | – | – | – | – | – | – | – | EC50 at 1 h [6]: 486 µg/mL (≈ 944 µM); EC50 at 1 h [5]: 427 µg/mL (≈ 830 µM)
Cl.Cl.NCCCc1cccc(-c2cccc(-c3cccc(CCCN)c3)c2)c1 [Compound 110] | – | – | – | – | – | 25 | 100 | 100 | 25 | 100 | –
N=C(N)NCCCOc1cc(OCCCNC(=N)N)cc(-c2ccc3sc4ccc(-c5cc(OCCCN)c(OCCCN)c(OCCCN)c5)cc4c3c2)c1 [Compound 185] | – | – | – | – | – | 6.25 (≈ 7.95 µM) | 1.56 (≈ 1.98 µM) | 25 (≈ 31.8 µM) | 0.78 (≈ 0.992 µM) | 12.5 (≈ 15.9 µM) | –
NCCCn1cc(-c2cccc(-c3cn(CCCN)nn3)c2)nn1 [Compound 108] | – | – | – | – | – | >100 | >100 | >100 | >100 | >100 | –
NCCCCn1cc(-c2cccc(-c3cn(CCCCN)nn3)c2)nn1 [Compound 107] | – | – | – | – | – | >100 | >100 | >100 | >100 | >100 | –
CCn1c2ccc(-c3cccc(N)c3)cc2c2cc(-c3cccc(N)c3)ccc21 [Compound 176] | – | – | – | – | – | 12.5 (≈ 33.1 µM) | >50 | 12.5 (≈ 33.1 µM) | 0.39 (≈ 1.03 µM) | >50 | –
NCCCN1c2ccccc2Sc2ccc(Cl)cc21 [Compound 103] | > 100 | > 100 | > 100 | 25 (≈ 86 µM) | > 100 | – | – | – | – | – | –
N=C(N)NCCCOc1cc(OCCCNC(=N)N)c(-c2cc(F)c(F)c(F)c2)cc1-c1cc(F)c(F)c(F)c1 [Compound 120] | – | – | – | – | – | – | – | – | – | – | EC50 at 1 h ([5]; NIH/3T3 cells (CRL-1658)): 99 µg/mL (≈ 174 µM)
NCCn1cc(-c2cccc(-c3cn(CCN)nn3)c2)nn1 [Compound 109] | – | – | – | – | – | >100 | >100 | >100 | >100 | >100 | –
N=C(N)NCCC#Cc1cc(-c2cc(OCCCNC(=N)N)cc(-c3cc(C#CCCNC(=N)N)cc(C(F)(F)F)c3)c2)cc(C(F)(F)F)c1 [Compound 121] | – | – | – | – | – | – | – | – | – | – | EC50 at 1 h ([5]; NIH/3T3 cells (CRL-1658)): 37 µg/mL (≈ 52.9 µM)

The next lines start with results.

MIC50 (E. Coli ATCC 25922) [µg/mL] | MIC50 [1] [µg/mL] | MIC50 [2] [µg/mL] | MIC50 [3] [µg/mL] | MIC50 [4] [µg/mL] | Compound | MIC50 E. coli (E. Coli ATCC 25922) [µg/mL] | MIC50 E. faecalis [1] [µg/mL] | MIC50 P. Aeruginosa [2] [µg/mL] | MIC50 S. aureus [3] [µg/mL] | MIC50 K. Pnuemnoiae [4] [µg/mL] | further results
50 (≈ 113 µM) | 25 (≈ 56.5 µM) | 50 (≈ 113 µM) | 50 (≈ 113 µM) | > 50 | NCC#Cc1cc(C#CCN)cc(-c2cccc(-c3cc(C#CCN)cc(C#CCN)c3)c2)c1 [Compound 124] | – | – | – | – | – | EC50 at 1 h ([5]; NIH/3T3 cells (CRL-1658)): 192 µg/mL (≈ 435 µM)
> 100 | > 100 | > 100 | 50 (≈ 149 µM) | > 100 | N=C(N)Nc1ccc(-c2nnc(-c3ccc(NC(=N)N)cc3)o2)cc1 [Compound 127] | – | – | – | – | – | –
1.56 (≈ 2.69 µM) | 0.39 (≈ 0.672 µM) | 12.5 (≈ 21.5 µM) | 0.78 (≈ 1.34 µM) | 3.13 (≈ 5.39 µM) | NCC(CN)c1cc(Br)cc(C#Cc2cccc(C#Cc3cc(Br)cc(C(CN)CN)c3)c2)c1 [Compound 190] | – | – | – | – | – | –
0.78 (≈ 1.26 µM) | 12.5 (≈ 20.2 µM) | 12.5 (≈ 20.2 µM) | 0.78 (≈ 1.26 µM) | 12.5 (≈ 20.2 µM) | N=C(N)NC/C=C/c1cc(/C=C/CNC(=N)N)cc(-c2cccc(-c3cc(/C=C/CNC(=N)N)cc(/C=C/CNC(=N)N)c3)c2)c1 [Compound 118] | – | – | – | – | – | –
12.5 (≈ 22.1 µM) | 1.56 (≈ 2.75 µM) | 12.5 (≈ 22.1 µM) | 0.39 (≈ 0.688 µM) | 25 (≈ 44.1 µM) | NCCc1cc(CCN)cc(-c2ccc(-c3cccc(-c4ccc(-c5cc(CCN)cc(CCN)c5)s4)c3)s2)c1 [Compound 138] | – | – | – | – | – | –
0.78 (≈ 1.11 µM) | 1.56 (≈ 2.21 µM) | 12.5 (≈ 17.7 µM) | 0.78 (≈ 1.11 µM) | 3.13 (≈ 4.44 µM) | NCCCN1c2ccc(NC(=O)Nc3ccc4c(c3)Sc3ccc(C(F)(F)F)cc3N4CCCN)cc2Sc2ccc(C(F)(F)F)cc21 [Compound 143] | – | – | – | – | – | –
6.25 (≈ 8.5 µM) | 0.78 (≈ 1.06 µM) | 12.5 (≈ 17 µM) | 0.39 (≈ 0.531 µM) | 3.13 (≈ 4.26 µM) | N=C(N)NCCc1cc(CCNC(=N)N)cc(-c2ccc(-c3cccc(-c4ccc(-c5cc(CCNC(=N)N)cc(CCNC(=N)N)c5)s4)c3)s2)c1 [Compound 139] | – | – | – | – | – | –
100 (≈ 295 µM) | > 100 | > 100 | 100 (≈ 295 µM) | > 100 | NCCCN1c2ccc(N)cc2Sc2ccc(C(F)(F)F)cc21 [Compound 104] | – | – | – | – | – | –
3.13 (≈ 5.13 µM) | 0.78 (≈ 1.28 µM) | 6.25 (≈ 10.2 µM) | 0.78 (≈ 1.28 µM) | 12.5 (≈ 20.5 µM) | N=C(N)NCC#Cc1cc(C#CCNC(=N)N)cc(-c2cccc(-c3cc(C#CCNC(=N)N)cc(C#CCNC(=N)N)c3)c2)c1 [Compound 123] | – | – | – | – | – | EC50 at 1 h ([5]; NIH/3T3 cells (CRL-1658)): 115 µg/mL (≈ 188 µM)
3.13 (≈ 5.16 µM) | 12.5 (≈ 20.6 µM) | 12.5 (≈ 20.6 µM) | 0.39 (≈ 0.643 µM) | 12.5 (≈ 20.6 µM) | NCCCn1c2cc(-c3cccc(CN(CCN)CCN)c3)ccc2c2ccc(-c3cccc(CN(CCN)CCN)c3)cc21 [Compound 178] | – | – | – | – | – | EC50 at 1 h ([6]; HepG2 cells (HB-8065)): 228 µg/mL (≈ 376 µM)
25 (≈ 55.5 µM) | 50 (≈ 111 µM) | 50 (≈ 111 µM) | 12.5 (≈ 27.7 µM) | > 50 | NC/C=C/c1cc(/C=C/CN)cc(-c2cccc(-c3cc(/C=C/CN)cc(/C=C/CN)c3)c2)c1 [Compound 117] | – | – | – | – | – | –
